Measured values as given in ChEMBL document CHEMBL1201862, “PubChem BioAssay data set” (2004).
Activity calls are given as the source filed them.

What was measured:
Large T antigen = Large T antigen (Simian virus 40, UniProt P03070); assay type: functional, Betapolyomavirus macacae;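 further: Confirmatory-stage PubChem screen for compounds that inhibit SV40 T antigen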
Estrogen receptor = target: T1, Estrogen receptor (Homo sapiens, UniProt P03372);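 further: potency for inhibiting coactivator peptide recruitment to the receptor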
T1 sequence (P03372 whole entry): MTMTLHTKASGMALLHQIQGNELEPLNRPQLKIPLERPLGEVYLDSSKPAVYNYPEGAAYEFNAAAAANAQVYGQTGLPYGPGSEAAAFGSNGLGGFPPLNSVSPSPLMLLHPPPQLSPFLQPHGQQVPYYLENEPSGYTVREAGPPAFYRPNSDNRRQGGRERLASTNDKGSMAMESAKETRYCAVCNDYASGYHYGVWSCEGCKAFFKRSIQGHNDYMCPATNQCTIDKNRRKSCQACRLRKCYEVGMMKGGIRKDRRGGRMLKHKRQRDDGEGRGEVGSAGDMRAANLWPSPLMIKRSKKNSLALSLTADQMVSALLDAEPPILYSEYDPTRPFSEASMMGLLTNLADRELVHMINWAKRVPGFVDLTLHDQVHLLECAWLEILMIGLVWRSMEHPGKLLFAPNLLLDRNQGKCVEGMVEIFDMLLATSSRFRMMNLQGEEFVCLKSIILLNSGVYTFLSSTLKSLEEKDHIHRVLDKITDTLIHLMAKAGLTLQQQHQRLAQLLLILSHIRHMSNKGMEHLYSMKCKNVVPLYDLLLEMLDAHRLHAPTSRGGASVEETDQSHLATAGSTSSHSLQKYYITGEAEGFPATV

Genome polyprotein [1] = target: T2, Genome polyprotein (Hepatitis C virus, UniProt Q2Q167); assay: disruption of hepatitis C core self-association – biochemical, TR-FRET, dose response (AID 2159); design: species or system Hepacivirus hominis;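 further: blocks dimerization of HCV core protein measured by TR-FRET between tagged core106 pairs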
T2 sequence (Q2Q167 whole entry): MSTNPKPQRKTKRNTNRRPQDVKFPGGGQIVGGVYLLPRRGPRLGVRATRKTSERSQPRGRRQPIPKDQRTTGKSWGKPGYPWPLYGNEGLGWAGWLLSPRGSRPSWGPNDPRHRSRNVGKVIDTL

[2] = target: T3, Voltage-gated N-type calcium channel alpha-1B subunit/Amyloid beta A4 precursor protein-binding family A member 1 (Homo sapiens, UniProt Q00975+Q02410); assay type: protein assay
[3] = target: T3, Voltage-gated N-type calcium channel alpha-1B subunit/Amyloid beta A4 precursor protein-binding family A member 1; assay type: protein assay; remark: listed apart in the source
[4] = target: DNA dC->dU-editing enzyme APOBEC-3G (Homo sapiens, UniProt Q9HC16); assay type: functional;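 further: Dose-response counterscreen measuring inhibition of APOBEC3G DNA deaminase activity, run while confirming APOBEC3A inhibitors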
[5] = target: DNA dC->dU-editing enzyme APOBEC-3A (Homo sapiens, UniProt P31941); assay: Dose Response confirmation of small molecule APOBEC3A DNA Deaminase Inhibitors via a fluorescence-based single-stranded DNA deaminase assay. [Related pubchem assays (depositor defined):AID493011, AID493024]; assay type: functional
[6] = target: T4, Tyrosyl-DNA phosphodiesterase 2 (Homo sapiens, UniProt O95551); assay: potency against TDP2 phosphodiesterase activity – biochemical, epi absorbance, IC50, dose response (AID 743297)
T4 sequence (O95551 whole entry): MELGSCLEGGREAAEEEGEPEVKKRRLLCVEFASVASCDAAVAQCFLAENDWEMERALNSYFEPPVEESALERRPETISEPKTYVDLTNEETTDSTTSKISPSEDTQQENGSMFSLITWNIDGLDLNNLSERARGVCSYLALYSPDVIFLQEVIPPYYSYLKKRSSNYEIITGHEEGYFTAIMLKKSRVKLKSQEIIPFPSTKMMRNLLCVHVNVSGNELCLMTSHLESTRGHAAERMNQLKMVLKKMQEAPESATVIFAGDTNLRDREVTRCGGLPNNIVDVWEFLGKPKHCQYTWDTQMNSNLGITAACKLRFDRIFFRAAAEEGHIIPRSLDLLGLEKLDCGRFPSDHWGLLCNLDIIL

[7] = target: T5, Apoptotic protease-activating factor 1 (Homo sapiens, UniProt O14727); assay type: functional
T5 sequence (O14727 whole entry): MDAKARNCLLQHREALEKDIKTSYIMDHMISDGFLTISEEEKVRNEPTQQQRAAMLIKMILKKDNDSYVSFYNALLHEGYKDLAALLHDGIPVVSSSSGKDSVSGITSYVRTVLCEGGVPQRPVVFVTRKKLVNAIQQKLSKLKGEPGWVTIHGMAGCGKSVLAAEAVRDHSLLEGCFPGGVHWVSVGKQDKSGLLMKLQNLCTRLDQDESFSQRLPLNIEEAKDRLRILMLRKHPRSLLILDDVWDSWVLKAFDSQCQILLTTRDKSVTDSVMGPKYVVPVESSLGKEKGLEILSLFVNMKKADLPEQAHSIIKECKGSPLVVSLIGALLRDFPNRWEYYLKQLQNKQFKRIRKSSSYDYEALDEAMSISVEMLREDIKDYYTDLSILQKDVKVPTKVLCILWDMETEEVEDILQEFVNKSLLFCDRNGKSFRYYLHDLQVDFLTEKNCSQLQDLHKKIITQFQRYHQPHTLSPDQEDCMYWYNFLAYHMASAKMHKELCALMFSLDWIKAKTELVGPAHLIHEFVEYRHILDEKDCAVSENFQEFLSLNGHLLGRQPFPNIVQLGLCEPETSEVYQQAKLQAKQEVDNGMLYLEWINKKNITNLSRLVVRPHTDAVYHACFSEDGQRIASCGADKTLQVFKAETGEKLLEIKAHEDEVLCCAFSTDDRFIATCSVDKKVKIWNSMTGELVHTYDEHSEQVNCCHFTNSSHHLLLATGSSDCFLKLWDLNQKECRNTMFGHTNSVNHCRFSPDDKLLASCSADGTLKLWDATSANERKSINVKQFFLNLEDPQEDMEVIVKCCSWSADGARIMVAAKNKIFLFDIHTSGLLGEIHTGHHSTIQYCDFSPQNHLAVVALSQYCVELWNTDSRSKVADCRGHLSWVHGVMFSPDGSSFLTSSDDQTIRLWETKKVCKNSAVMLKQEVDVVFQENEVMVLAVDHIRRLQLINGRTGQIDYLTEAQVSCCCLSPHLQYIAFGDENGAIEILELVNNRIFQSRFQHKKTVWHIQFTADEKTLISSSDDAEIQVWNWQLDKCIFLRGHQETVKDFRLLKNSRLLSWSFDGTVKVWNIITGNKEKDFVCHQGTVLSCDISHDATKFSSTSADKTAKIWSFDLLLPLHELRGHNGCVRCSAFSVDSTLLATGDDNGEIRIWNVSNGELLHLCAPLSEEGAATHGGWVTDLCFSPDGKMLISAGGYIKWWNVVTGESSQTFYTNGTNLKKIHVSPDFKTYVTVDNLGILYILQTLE

INS1 = assay: INS-1E survival protection against cytokine death – cell-based, luminescence, retest, dose response (AID 449756); assay type: functional; details: Rattus norvegicus;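 further: cell death triggered by IL-1 beta plus TNF-alpha plus IFN-gamma mixture; protective hits raise ATP signal compared with cytokine alone wells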
[8] = target: T6, Delta-type opioid receptor (Homo sapiens, UniProt P41143); assay: HTS Image-Based Screen for Agonists of the DOR Receptor. [Related pubchem assays (depositor defined):AID1777, AID1786, AID2133]; assay type: functional
[9] = target: T7, Kappa-type opioid receptor (Homo sapiens, UniProt P41145); assay type: functional
Beta-galactosidase = Beta-galactosidase (Escherichia coli, UniProt Q8VNN2); assay type: functional
[10] = target: T7, Kappa-type opioid receptor; assay type: functional; remark: listed apart in the source
Mu-type opioid receptor = Mu-type opioid receptor (Homo sapiens, UniProt P35372); assay: HTS Image-Based Screen for Agonists of the MOR Receptor. [Related pubchem assays (depositor defined):AID1777, AID1785, AID1786, AID2133]; assay type: functional;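 further: imaging of beta-arrestin GFP recruitment into spots after receptor activation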
[11] = target: Voltage-dependent T-type calcium channel subunit alpha-1H (Homo sapiens, UniProt O95180); assay type: functional;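 further: channel activity triggered by adding a high calcium stimulation buffer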
[12] = target: T6, Delta-type opioid receptor; assay: HTS Image-Based Screen for Antagonists of the DOR Receptor. [Related pubchem assays (depositor defined):AID1777, AID1785, AID1786, AID2133]; assay type: functional
Phospholipase A2 = Phospholipase A2 (Homo sapiens, UniProt P04054); assay type: functional;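 further: confirmatory dose-response counterscreen on phospholipase A2, testing hits that came from an ultra-high-throughput screen for ATG4B inhibitors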
[13] = target: Alkaline phosphatase, placental type (Homo sapiens, UniProt P05187); assay: human placental alkaline phosphatase inhibition – biochemical, luminescence, confirmation (AID 1512); assay type: functional
[14] = target: T8, Alkaline phosphatase, tissue-nonspecific isozyme (Homo sapiens, UniProt P05186); assay: potency against alkaline phosphatase TNAP – biochemical, luminescent, dose response, SAR follow-up (AID 1056)
T8 sequence (P05186 whole entry): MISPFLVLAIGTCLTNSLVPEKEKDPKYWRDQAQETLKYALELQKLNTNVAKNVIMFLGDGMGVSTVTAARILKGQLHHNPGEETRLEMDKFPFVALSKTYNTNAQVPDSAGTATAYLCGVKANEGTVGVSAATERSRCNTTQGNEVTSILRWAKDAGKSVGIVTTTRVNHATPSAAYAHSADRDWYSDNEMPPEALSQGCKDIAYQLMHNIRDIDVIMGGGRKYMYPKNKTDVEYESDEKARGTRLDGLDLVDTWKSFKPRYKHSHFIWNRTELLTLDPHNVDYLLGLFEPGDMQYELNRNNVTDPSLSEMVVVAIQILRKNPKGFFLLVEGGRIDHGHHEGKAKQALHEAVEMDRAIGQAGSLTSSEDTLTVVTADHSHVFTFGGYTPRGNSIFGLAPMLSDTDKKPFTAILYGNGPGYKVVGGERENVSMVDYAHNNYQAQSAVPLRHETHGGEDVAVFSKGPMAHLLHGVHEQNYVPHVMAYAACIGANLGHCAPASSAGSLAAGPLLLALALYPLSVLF

Genome polyprotein [15] = target: Genome polyprotein (dengue virus type 2, UniProt P29990); assay: flavivirus cap methylation enzyme inhibition – biochemical, confirmation dose response, primary screen (AID 588689); assay type: functional
[16] = target: Glucose-6-phosphate 1-dehydrogenase (Homo sapiens, UniProt P11413); assay: inhibition of Homo sapiens G6PD, dose series – biochemical, fluorescence, selectivity assay for P. falciparum G6PD inhibitor project, dose response (AID 504792); assay type: functional
Vero = assay: viability of Vero cells under compound – cytotoxicity control for flavivirus capping enzyme inhibitors (AID 588742); assay type: functional; details: Chlorocebus sabaeus
[17] = target: Induced myeloid leukemia cell differentiation protein Mcl-1 (Homo sapiens, UniProt Q07820); assay type: functional

DNA dC->dU-editing enzyme APOBEC-3G, sequence (Q9HC16 whole entry): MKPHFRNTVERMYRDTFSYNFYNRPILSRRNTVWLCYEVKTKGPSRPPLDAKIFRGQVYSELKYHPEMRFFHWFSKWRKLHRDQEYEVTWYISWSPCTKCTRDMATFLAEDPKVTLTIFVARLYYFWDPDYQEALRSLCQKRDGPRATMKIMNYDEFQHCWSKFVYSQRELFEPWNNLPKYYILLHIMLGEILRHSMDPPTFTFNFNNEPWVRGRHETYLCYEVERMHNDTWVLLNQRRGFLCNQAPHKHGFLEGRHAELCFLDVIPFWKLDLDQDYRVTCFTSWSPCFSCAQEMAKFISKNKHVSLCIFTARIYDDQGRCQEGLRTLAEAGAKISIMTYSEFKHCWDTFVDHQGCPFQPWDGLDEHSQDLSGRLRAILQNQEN
T6 sequence (P41143 whole entry): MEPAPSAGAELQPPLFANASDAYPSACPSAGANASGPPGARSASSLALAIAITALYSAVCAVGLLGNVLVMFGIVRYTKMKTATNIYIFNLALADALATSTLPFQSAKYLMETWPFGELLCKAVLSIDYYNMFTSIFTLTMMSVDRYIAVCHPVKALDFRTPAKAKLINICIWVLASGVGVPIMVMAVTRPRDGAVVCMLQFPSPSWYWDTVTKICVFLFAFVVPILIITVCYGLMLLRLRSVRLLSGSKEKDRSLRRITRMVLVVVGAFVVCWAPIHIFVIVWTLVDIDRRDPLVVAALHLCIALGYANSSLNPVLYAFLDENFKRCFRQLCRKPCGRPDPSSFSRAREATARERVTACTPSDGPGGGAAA
T7 sequence (P41145 whole entry): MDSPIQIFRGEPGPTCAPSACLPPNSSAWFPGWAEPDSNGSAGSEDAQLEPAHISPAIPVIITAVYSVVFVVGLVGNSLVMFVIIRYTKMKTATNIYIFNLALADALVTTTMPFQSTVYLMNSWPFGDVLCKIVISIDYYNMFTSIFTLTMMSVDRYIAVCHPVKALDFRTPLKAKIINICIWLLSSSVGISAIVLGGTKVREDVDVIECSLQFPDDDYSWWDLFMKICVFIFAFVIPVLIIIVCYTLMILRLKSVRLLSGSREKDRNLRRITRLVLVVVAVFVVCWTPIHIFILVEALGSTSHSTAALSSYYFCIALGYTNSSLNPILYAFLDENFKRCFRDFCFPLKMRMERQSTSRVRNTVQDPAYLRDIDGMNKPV
DNA dC->dU-editing enzyme APOBEC-3A, sequence (P31941 whole entry): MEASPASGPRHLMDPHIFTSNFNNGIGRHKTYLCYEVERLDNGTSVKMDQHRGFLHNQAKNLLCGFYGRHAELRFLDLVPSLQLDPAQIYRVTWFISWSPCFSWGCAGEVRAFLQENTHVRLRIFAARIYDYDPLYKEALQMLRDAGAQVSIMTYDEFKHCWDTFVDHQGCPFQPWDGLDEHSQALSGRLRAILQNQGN
Alkaline phosphatase, placental type, sequence (P05187 whole entry): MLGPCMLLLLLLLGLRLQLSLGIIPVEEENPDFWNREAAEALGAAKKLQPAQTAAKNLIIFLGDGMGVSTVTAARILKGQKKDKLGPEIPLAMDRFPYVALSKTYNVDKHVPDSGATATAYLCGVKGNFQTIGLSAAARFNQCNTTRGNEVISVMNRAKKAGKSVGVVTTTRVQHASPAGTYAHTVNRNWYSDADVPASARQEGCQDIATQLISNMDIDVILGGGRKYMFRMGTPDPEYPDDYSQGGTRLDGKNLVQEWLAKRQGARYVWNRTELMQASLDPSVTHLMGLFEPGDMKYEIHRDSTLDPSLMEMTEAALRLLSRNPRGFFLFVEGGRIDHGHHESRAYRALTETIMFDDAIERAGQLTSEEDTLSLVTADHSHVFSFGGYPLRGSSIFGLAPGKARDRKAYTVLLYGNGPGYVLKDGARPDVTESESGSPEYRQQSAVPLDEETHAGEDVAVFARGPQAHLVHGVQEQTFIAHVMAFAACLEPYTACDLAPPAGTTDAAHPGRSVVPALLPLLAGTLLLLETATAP
T3 sequence (Q00975 whole entry): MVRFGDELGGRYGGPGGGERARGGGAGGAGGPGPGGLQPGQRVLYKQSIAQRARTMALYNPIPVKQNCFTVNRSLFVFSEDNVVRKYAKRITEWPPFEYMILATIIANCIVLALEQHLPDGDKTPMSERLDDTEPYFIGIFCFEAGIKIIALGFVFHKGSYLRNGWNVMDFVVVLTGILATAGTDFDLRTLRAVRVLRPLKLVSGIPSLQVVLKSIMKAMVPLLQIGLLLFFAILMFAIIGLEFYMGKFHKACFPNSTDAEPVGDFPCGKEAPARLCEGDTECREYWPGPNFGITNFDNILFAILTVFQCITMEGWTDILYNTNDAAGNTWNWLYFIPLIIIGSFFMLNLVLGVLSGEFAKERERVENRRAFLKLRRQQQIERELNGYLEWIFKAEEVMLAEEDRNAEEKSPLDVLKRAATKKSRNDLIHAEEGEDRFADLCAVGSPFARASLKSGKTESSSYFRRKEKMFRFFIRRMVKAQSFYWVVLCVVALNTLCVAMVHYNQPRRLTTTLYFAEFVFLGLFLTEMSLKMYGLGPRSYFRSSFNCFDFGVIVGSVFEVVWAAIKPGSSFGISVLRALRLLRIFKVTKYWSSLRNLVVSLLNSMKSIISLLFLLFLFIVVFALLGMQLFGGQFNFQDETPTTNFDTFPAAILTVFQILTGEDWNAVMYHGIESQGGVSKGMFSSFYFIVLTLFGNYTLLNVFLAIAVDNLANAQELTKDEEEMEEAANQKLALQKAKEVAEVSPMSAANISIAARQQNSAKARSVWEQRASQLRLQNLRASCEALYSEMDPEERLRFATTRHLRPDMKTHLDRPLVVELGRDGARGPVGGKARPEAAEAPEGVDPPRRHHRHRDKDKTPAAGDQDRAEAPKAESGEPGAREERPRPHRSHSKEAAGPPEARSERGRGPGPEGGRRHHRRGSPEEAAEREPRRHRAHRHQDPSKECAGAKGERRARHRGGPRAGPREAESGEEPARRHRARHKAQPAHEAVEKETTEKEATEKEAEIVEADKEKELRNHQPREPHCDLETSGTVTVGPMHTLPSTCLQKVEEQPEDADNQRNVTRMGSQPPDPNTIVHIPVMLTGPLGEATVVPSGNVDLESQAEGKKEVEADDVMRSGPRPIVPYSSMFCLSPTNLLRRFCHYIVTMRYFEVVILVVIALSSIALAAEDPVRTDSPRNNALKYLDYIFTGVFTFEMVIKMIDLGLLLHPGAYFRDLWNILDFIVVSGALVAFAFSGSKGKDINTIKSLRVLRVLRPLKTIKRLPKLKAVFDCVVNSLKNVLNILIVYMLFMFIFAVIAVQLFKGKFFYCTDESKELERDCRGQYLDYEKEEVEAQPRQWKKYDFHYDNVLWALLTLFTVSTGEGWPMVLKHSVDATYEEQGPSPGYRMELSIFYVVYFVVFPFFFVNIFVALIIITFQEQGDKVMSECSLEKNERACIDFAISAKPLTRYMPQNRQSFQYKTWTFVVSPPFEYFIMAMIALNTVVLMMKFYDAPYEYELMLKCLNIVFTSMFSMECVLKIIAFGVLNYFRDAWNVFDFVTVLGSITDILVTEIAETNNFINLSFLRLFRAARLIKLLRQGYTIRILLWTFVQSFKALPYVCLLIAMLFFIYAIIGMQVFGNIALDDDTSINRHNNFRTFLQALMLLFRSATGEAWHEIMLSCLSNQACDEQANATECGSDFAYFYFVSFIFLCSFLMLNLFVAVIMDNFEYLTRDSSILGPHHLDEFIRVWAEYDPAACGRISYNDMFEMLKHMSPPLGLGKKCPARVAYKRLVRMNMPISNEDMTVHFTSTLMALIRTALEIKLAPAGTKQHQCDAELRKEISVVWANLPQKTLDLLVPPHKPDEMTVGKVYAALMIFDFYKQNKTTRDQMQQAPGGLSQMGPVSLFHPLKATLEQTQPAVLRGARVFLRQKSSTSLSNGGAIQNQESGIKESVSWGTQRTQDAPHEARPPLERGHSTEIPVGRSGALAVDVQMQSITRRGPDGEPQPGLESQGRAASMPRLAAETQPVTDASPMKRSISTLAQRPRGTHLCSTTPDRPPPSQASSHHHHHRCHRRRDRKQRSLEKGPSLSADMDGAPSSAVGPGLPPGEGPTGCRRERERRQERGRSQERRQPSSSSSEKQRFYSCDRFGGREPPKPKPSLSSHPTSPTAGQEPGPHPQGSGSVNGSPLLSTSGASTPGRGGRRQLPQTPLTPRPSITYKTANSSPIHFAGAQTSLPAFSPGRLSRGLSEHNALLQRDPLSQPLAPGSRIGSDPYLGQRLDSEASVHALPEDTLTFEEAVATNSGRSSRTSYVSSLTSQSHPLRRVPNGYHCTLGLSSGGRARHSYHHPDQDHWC
T3 sequence (Q02410 whole entry): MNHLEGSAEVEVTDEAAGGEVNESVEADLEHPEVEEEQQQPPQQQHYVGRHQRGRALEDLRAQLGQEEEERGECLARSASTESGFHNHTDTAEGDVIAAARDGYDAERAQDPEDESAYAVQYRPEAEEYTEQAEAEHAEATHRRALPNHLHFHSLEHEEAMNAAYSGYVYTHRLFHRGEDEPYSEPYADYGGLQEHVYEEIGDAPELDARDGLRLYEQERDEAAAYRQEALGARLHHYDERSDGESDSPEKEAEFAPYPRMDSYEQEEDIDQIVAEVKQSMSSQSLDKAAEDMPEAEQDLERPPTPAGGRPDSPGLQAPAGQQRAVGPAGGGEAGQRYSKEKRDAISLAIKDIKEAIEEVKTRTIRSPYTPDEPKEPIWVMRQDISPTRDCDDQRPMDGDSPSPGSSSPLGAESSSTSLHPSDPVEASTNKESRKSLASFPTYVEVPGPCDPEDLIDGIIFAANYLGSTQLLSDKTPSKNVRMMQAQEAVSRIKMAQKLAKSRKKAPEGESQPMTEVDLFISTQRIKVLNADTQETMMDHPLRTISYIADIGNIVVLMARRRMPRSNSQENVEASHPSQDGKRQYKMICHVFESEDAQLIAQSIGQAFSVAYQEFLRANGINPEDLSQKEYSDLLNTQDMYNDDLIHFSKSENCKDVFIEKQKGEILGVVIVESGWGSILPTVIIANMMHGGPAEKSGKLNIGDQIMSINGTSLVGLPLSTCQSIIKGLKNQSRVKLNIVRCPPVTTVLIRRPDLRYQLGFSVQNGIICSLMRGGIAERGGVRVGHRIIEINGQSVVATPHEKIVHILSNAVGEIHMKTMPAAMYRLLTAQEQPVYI

Cc1cccc(N2CSC3=C(C#N)C(c4ccc(C)o4)CC(=O)N3C2)c1 (stereo not given)
IC50 (Large T antigen): 11.4 µM (active)
IC50 (Estrogen receptor): 3.55 µM (active)
IC50 (Genome polyprotein [1]): > 49.8 µM (not active)
IC50 [2]: 6.47 µM (active)
IC50 [3]: 22.3 µM (active)

COc1ccc(CCCC(=O)NC2CCCCC2C)c(C)c1 (stereo not given)
IC50 [4]: 2.99 µM (active)
IC50 [5]: 3.49 µM (active)

Cc1cccnc1NC(=O)CN1C(=O)COc2ccc(Cl)cc21
IC50 [4]: 1.65 µM (active)
IC50 [5]: 1.91 µM (active)

Nc1ccc2nn(-c3cccc4ccccc34)nc2c1
IC50 [6]: > 128 µM (inactive)
IC50 [7]: 50 µM (active)
AC50 (INS1): 12.6 µM (active)

COc1ccccc1N1CCN(C(c2cccs2)C(C)NS(=O)(=O)c2ccccc2)CC1 (stereo not given)
IC50 [7]: 10 µM (active)

O=C(Nc1nnc(-c2cccs2)o1)c1cccc(Oc2ccccc2)c1
EC50 [8]: > 32 µM (inactive)
IC50 [9]: 9.8 µM (active)
EC50 (Beta-galactosidase): > 31.5 µM (inactive)
IC50 [10]: > 32 µM
EC50 (Mu-type opioid receptor): > 32 µM (inactive)
EC50 [11]: 3.02 µM (active)
IC50 [12]: > 32 µM (inactive)

N#Cc1c(-c2cccc(Br)c2)cc(-c2ccco2)[nH]c1=O
IC50 (Phospholipase A2): 11.7 µM (active)

Cc1cc(C(=O)NCc2ccc(O)c(O)c2)c(C)o1
IC50 [13]: > 100 µM (inactive)
IC50 [14]: 12.5 µM (active)

Cc1cc(C)c(S(=O)(=O)/N=C2/C=C(SCC(=O)O)C(=O)c3ccccc32)cc1C
IC50 (Genome polyprotein [15]): > 100 µM (active)
IC50 [16]: 30.2 µM (inactive)
IC50 [7]: 12.6 µM (active)
CC50 (Vero): 37.5 µM (active)
IC50 [17]: 7.55 µM (active)

O=C(CNC1CCCCC1)c1ccc(O)c(O)c1
IC50 [13]: 18.8 µM (active)
IC50 [14]: > 100 µM (inactive)
